In turn, `O=C(c1cc2c3ccccc3n(Cc3ccccc3)c2s1)N1CCOCC1` gave a melting point of 199 to 201 °C.

`CCOC(=O)C(=O)Nc1cc(C)c(C)cc1[N+](=O)[O-]` had a melting point of 109 °C.

The compound `COc1ccc(-c2c(Cl)c(CN3C(=O)CCC3=O)nc3sc4c(c23)CCN(C(=O)C(F)(F)F)C4)cc1` registered a melting point of 250 to 252 °C.

`Cc1c(C)c2c(c(C)c1O)CCC(C)(C(=O)N1CCC(Oc3ccc([N+](=O)[O-])cc3)C1)O2` (stereo not drawn) returned a melting point of 176 to 178 °C.

`O=C1CSC(=S)N1c1ccc(Cl)c(Cl)c1` yielded a melting point of 176 to 178 °C.

Regarding `O=c1[nH]cnc2c1ncn2[C@@H]1CO[C@H](CO)C1`, the melting point is 98 °C.

Turning to `O=S1(=O)NC(C2CCCCC2)Nc2cc3c(cc21)OCCO3` (stereo not drawn), the melting point was in the range of 196 to 200 °C.

In turn, `CCCCOc1c(CNC(=O)OC(C)(C)C)n(CC(C)C)c(=O)c2ccc(-c3ccco3)cc12` registered a melting point of 157 to 158 °C.

As to `Fc1ccc(-c2coc(-c3cn([C@H]4CN5CCC4CC5)nn3)c2)cn1`, the melting point is 210 °C.

As to `N#CC(C#N)=CNc1ccc(C2=NNC(=O)CC2)cc1`, the melting point lay within 290 to 295 °C.

Compound `O=[N+]([O-])c1cc(C(F)(F)F)ccc1Sc1nc(-c2ccccc2)c(-c2ccccc2)[nH]1` showed a melting point of 234 to 236 °C.

Consider `CCOC(=O)CNc1cc(Cl)nc(NCc2ccc(Cl)cc2)n1`, for which the melting point was 168 to 170 °C.

Compound `CCCSc1sc(C(=O)O)c2c1-c1c(cnn1C)CC2` came in with a melting point of 216 to 217 °C.

Take `COc1cnc[nH]c1=O`: the melting point fell in the range of 206 to 208 °C.

`Cc1ccc(Cl)cc1NC(=O)c1cc([N+](=O)[O-])ccc1NC(=O)CF` had a melting point of 210 to 212 °C.

Consider `Cn1nc(-c2c(F)cccc2Cl)nc1-c1ccc(Oc2ccc(C(F)(F)F)cn2)cc1Cl`, for which the melting point was in the range of 139 to 141 °C.

Turning to `Cc1c2n(c3ccccc13)C(=O)C(Cc1c[nH]cn1)CC2` (stereo not drawn), the melting point was in the range of 156 to 157 °C.

`O=CC=CC(=C(c1ccc(F)cc1)c1ccc(F)cc1)n1cnnn1`: the melting point lay in the range of 152 to 154 °C.

Compound `Fc1ccc(C2=CCC3(CC2)OCCO3)cc1` gave a melting point of 84 to 85 °C.

On to `CC(=O)OCC(=O)c1cc2c(s1)SCCc1cc(=O)n(-c3ccc(Cl)cc3)nc1-2`, for which the melting point lay within 172 to 174 °C.

On to `COc1ccc(-c2nc(Sc3ccc(Cl)c(Cl)c3)n(C3CCCCO3)c2-c2ccc(OC)cc2)cc1` (stereo not drawn), for which the melting point is 125 to 127 °C.

On to `CON1CCC2(CC1)C(OCc1ccccc1)=C(c1c(C)cc(C)cc1C)C(=O)N2CC1CC1`, for which the melting point lay within 119 to 121 °C.

In turn, `CNC(=O)c1c(-c2ccccc2)noc1CC(=O)c1ccccn1` registered a melting point of 146 to 149 °C.

In the case of `O=S(=O)(Cc1ccccc1)NCCCCOc1ccc(-n2ccnc2)cc1`, the melting point lay in the range of 123 to 124 °C.

For `COC(=O)c1ccc(SC)c([N+](=O)[O-])c1`, the melting point lay in the range of 118 to 120 °C.

Take `Cc1ccc(S(=O)(=O)OCCC2(C)OCCc3nc(-c4ccccc4)sc32)cc1` (stereo not drawn): the melting point lay in the range of 86 to 87 °C.

In the case of `C#CCSc1cc(C(=O)O)cc(S(N)(=O)=O)c1Oc1ccccc1`, the melting point lay in the range of 197 to 198 °C.

The compound `O=C(O)CCn1c(=O)n(CCCN2CCC(OC(c3ccccc3)c3ccccc3)CC2)c(=O)c2ccccc21` registered a melting point of 237 to 238 °C.

With `CC(C)Oc1cc(CCCOc2cc(CCC(=O)O)n(-c3ccccc3)n2)n(Cc2ccc(Cl)cc2Cl)n1`, the melting point lay within 146 to 148 °C.

Take `O=C1NN=C(c2cccc([N+](=O)[O-])c2)C2CC12` (stereo not drawn): the melting point fell in the range of 220 to 221 °C.

Take `CCOCn1cc(C(C)C)c(=O)[nH]c1=O`: the melting point came out at 78.4 °C.

The compound `Cc1nc(C)c(Cl)c(NCc2nccc(SCCCN3CCNCC3)c2C)n1` gave a melting point of 144 to 145 °C.

In turn, `COc1ccc(C(C)(C)C(=O)O)cc1` gave a melting point of 86 to 88 °C.

For the compound `O=C(NN1CCN(C(=O)C=Cc2ccccc2)CC1)c1ccc(F)cc1`, the melting point is 235 to 240 °C.

`CSc1nc(=O)cc(N)n1-c1ccc(C)cc1` came in with a melting point of 130 to 132 °C.

For `COc1cccc([C@H]2O[C@H](CC(=O)Nc3cccc(C(=O)O)c3C)C(=O)N(CC(C)(C)COC(C)=O)c3ccc(Cl)cc32)c1OC`, the melting point lay within 139 to 142 °C.

`COC(=O)c1cccc2c1Nc1cc(I)ccc1C2` registered a melting point of 108 to 110 °C.

The compound `CCCNC(=O)COC1c2ccccc2C(=O)N1c1ccc2ccc(Cl)nc2n1` (stereo not drawn) showed a melting point of 167 °C.

With `FC(F)(F)c1cc(C(F)(F)F)c(-c2ccc(Cl)cc2)[nH]1`, the melting point was in the range of 41 to 43 °C.

Turning to `CCCc1[nH]c2cc(C(=O)OC)ccc2c1C(=O)C=C(C)C`, the melting point fell in the range of 146 to 147 °C.

Turning to `COc1cc2cc3c(N)c(C(N)=O)sc3nc2cc1OC`, the melting point is 278 to 280 °C.

On to `Nc1ccc(C(=S)SCCO)cc1`, for which the melting point fell in the range of 87.5 to 89.5 °C.

For the compound `Oc1ccc(CCCCn2cncn2)cc1`, the melting point lay in the range of 135 to 136 °C.

In turn, `Cc1sc(-n2nc(C(=O)O)nc2CCl)c(C(=O)c2ccccc2)c1C` had a melting point of 162 to 163 °C.

Regarding `CC(=O)NCCCC(=O)c1ccc(Cl)cc1CCC(=O)NCC(=O)O`, the melting point is 88 to 89 °C.

Turning to `Cc1ccccc1CC(=NC#N)NC(NC(=O)CCCCc1ccccc1)C(C)(C)C` (stereo not drawn), the melting point was 151 to 152 °C.

The compound `CCOC(=O)c1cn(-c2nonc2C)c2nc(Cl)c(F)cc2c1=O` had a melting point of 211 to 216 °C.

Regarding `O=C1C=C(NC(=O)C(=O)c2cn(Cc3c(F)cccc3F)c3ccccc23)CO1`, the melting point fell in the range of 252 to 256 °C.

In turn, `CCCCCCCCCCCCCCOC(=O)CNC(=O)OCc1ccccc1` came in with a melting point of 57 to 58 °C.

Consider `CC(C)c1[nH]n(-c2c(Cl)cc(Cl)cc2Cl)c2nc(Cc3ccc(N(C(=O)OC(C)(C)C)C(=O)[C@@H]4CCCN4)cc3)nc(=O)c1-2`, for which the melting point was 225 to 226 °C.

As to `BrC(c1ccccc1)c1ccc2ccccc2c1` (stereo not drawn), the melting point lay within 89 to 90 °C.

In turn, `CCC(=O)c1ccc2c(c1)C(C(=O)Nc1cccc(C(=O)Nc3ccccc3)c1)C(=O)N2CC` (stereo not drawn) displayed a melting point of 179 to 180 °C.

With `CC1(C)C=C(C(=O)CCCN2CCC(C(O)(c3ccccc3)c3ccccc3)CC2)C=CC1CCO` (stereo not drawn), the melting point is 135 to 137 °C.

Consider `COC(=O)Nc1cccc(OC(=O)N(CCC#N)c2ccccc2)c1`, for which the melting point lay in the range of 98 to 99 °C.

In turn, `CC(C)(C)OC(=O)NNCCC12CC3CC(CC(C3)C1)C2` showed a melting point of 73.5 to 81 °C.

`CCOC(=O)N1CCN(CC2CSC3=C(O2)c2ccccc2C(=O)C3=O)CC1` (stereo not drawn): the melting point lay in the range of 185 to 187 °C.

For the compound `CCNc1nc(N)nc2c1ncn2C1CC(N=[N+]=[N-])C(CO)O1` (stereo not drawn), the melting point lay in the range of 199 to 201 °C.

For the compound `CCn1cc(C(=O)O)c(=O)c2cc(F)c(N3CC4CC3CN4)c(F)c21` (stereo not drawn), the melting point was in the range of 233 to 236 °C.

Take `Cn1c(CC(=O)O)cc(Cl)c1C(=O)c1ccc(S(C)=O)cc1` (stereo not drawn): the melting point lay in the range of 222 to 223 °C.

`O=C(O)CNC(=NS(=O)(=O)c1ccccc1)Nc1cccc(Cl)c1` showed a melting point of 218 °C.

`Fc1ccc2c(C3=CCN(CCC4OCCc5cc(Br)ccc54)CC3)c[nH]c2c1` (stereo not drawn): the melting point lay in the range of 184 to 186 °C.

`CC(=O)OC1CCCC2=CCC3C4CCC(C(C)CCCC(C)C)C4(C)CCC3C21C` (stereo not drawn) showed a melting point of 65 to 66 °C.

`O/N=C(/CCN1CCN(c2ncccn2)CC1)c1ccccc1` had a melting point of 175 to 177 °C.

For `CCOC(=O)C1CCCCCCCC(=O)N1` (stereo not drawn), the melting point is 101 to 103 °C.

`Cc1ccc(NC(=O)NN2CCN(CCc3c[nH]c4ccccc34)CC2)cc1`: the melting point lay within 201 to 203 °C.

With `O=C(O)c1ccc(NC(=O)c2ccccc2SSc2ccccc2C(=O)Nc2ccc(C(=O)O)cc2)cc1`, the melting point is > 285 °C.

For `CC(C)(C)OC(=O)N1CCN(CC(O)CNc2ccc(CC#N)cc2)CC1` (stereo not drawn), the melting point fell in the range of 86 to 87 °C.

`CC(C)=CCc1cc(C2CC(=O)c3ccc(O)cc3O2)ccc1O` (stereo not drawn) came in with a melting point of 76 to 78 °C.

`Cc1cc(OCc2ccc(-c3ccccc3-c3nnn(C(c4ccccc4)(c4ccccc4)c4ccccc4)n3)cc2)c(CCl)c(C)n1` yielded a melting point of 110 to 112 °C.

On to `CCOC(=O)c1cn(C2CC2)c2c(F)c(NCCCO)c(F)cc2c1=O`, for which the melting point lay in the range of 160 to 162 °C.

For the compound `CCOC(=O)/C(=N\OC(C)(C)C(=O)OC(C)(C)C)c1nc(C(c2ccccc2)(c2ccccc2)c2ccccc2)sc1N`, the melting point fell in the range of 124 to 125 °C.

The compound `Cn1c(CO)nc2ccc(Cl)nc21` yielded a melting point of 204 to 210 °C.

`CCOC(=O)c1c(C(C)C)nc(-c2ccccc2)c(-c2ccccc2)c1-c1ccc(F)cc1` had a melting point of 135 to 136 °C.

`C/C(N)=C/C(=O)OCCOC/C(C)=C/c1ccc(Cc2cccnc2)cc1` yielded a melting point of 67 to 70 °C.

In turn, `CONC(=O)c1cc(C(=O)OC)c2cc(Cc3ccc(F)cc3)cnc2c1O` displayed a melting point of 186 to 188 °C.

As to `COc1ccc(-c2nc(-c3ccc(F)cc3)sc2-c2ccc(OC)cc2)cc1`, the melting point fell in the range of 140 to 142 °C.

`COC(=O)c1ccc2nc3n(c(=O)c2c1)CCC3=Cc1ccccc1`: the melting point lay within 224 to 227 °C.

`N#Cc1c(-c2ccc(F)cc2)cc2c3c1ccn3C(=O)CNC2` yielded a melting point of 248 to 250 °C.

`Cc1ccc(Oc2cc(-c3ccc(Br)cc3)oc2-c2ccc(Br)cc2)cc1`: the melting point was in the range of 92 to 93 °C.

Take `COc1ccc(OCC#CCCC(N)N2C(=O)c3ccccc3C2=O)cc1` (stereo not drawn): the melting point fell in the range of 51 to 53 °C.

In turn, `O=S1(=O)NC2CCCN2c2ccc(Oc3cccc(-c4nnn[nH]4)c3)cc21` (stereo not drawn) yielded a melting point of 266 to 272 °C.

For `CCC(C(=O)O)C1=NC(c2ccccc2)(c2ccccc2)CO1` (stereo not drawn), the melting point lay within 125 to 126 °C.

In turn, `COc1ccc(CN2C(=O)CC(C)(C)c3cc(Br)ccc32)cc1` yielded a melting point of 118 to 119 °C.

`COCCn1cc(C(=O)C(F)(F)F)c2c(Cl)cccc21` gave a melting point of 57 to 59 °C.

`CC(=O)CNC(=O)Cc1ccccc1`: the melting point was found to be 126 °C.

Turning to `CC(=O)OC1CC(n2cc(C=CBr)c(=O)[nH]c2=O)OC1C(O)F` (stereo not drawn), the melting point is 81 °C.

Consider `O=C1C=CC(O)(c2ccc3ccccc3c2)C=C1`, for which the melting point was 137 °C.

Turning to `CC(=O)SCC(=O)Nc1ccc(C(=O)O)cc1`, the melting point lay within 233 to 234 °C.

One may read the melting point as the temperature of the solid-liquid transition.

The record behind these values is a melting point compilation (Tetko et al.; mined from patent text by program, amines drawn as free bases though some values may be those of a salt).
